Laboratory results from ChEMBL document CHEMBL4316583, “In Vitro and in Vivo Antitumor Effects of Plant-Derived Miliusanes and Their Induction of Cellular Senescence” (J Med Chem, 2019).
Calls of active or inactive are those of the source. The calls are words filed in the database; no cut-off is given here.

Experiments:
[1] = tested on: HCT-116; experiment: Cytotoxicity against human HCT116 cells assessed as cell growth inhibition after 48 hrs by sulforhodamine B assay; assay type: functional, cell-based; settings: HCT-116, 48 h
[2] = tested on: A-375; experiment: Cytotoxicity against human A375 cells assessed as cell growth inhibition after 48 hrs by sulforhodamine B assay; assay type: functional, cell-based; settings: A-375, 48 h
[3] = tested on: A549; experiment: Cytotoxicity against human A549 cells assessed as cell growth inhibition after 48 hrs by sulforhodamine B assay; assay type: functional, cell-based; settings: A549, 48 h
[4] = tested on: HCT-116; experiment: Cytotoxicity against human HCT116 cells assessed as cell growth inhibition after 24 hrs by sulforhodamine B assay; assay type: functional, cell-based; settings: HCT-116, 24 h
[5] = Toxicity in nude BALB/c mouse xenografted with human HCT116 cells assessed as body weight loss at 20 to 40 mg/kg, administered every other day for 21 days; assay type: organism-based; settings: in vivo, 504 h
[6] = tested on: HCT-116; experiment: Antitumor activity against human HCT116 cells xenografted in nude BALB/c mouse assessed as tumor growth inhibition at 20 mg/kg, ip administered every other day for 21 days relative to control; assay type: functional; settings: HCT-116, ip, 504 h, read-out: TGI
[7] = tested on: HCT-116; experiment: Antitumor activity against human HCT116 cells xenografted in nude BALB/c mouse assessed as tumor growth inhibition at 40 mg/kg, ip administered every other day for 21 days relative to control; assay type: functional; settings: HCT-116, ip, 504 h, read-out: TGI
[8] = tested on: HCT-116; experiment: Induction of cellular senescence in human HCT116 cells at 11.5 uM after 48 hrs by SA-beta-gal-staining based assay; assay type: functional, cell-based
[9] = tested on: HCT-116; experiment: Antitumor activity against human HCT116 cells xenografted in nude BALB/c mouse assessed as tumor growth inhibition at 25 mg/kg, ip administered every other day for 21 days relative to control; assay type: functional; settings: HCT-116, ip, 504 h, read-out: TGI
[10] = tested on: HCT-116; experiment: Induction of apoptosis in human HCT116 cells assessed as early apoptotic cells at 11.5 uM after 48 hrs by annexin V/propidium iodide-double staining based flow cytometry (reference value: 4.8%); assay type: functional
[11] = tested on: HCT-116; experiment: Induction of apoptosis in human HCT116 cells assessed as late apoptotic cells at 11.5 uM after 48 hrs by annexin V/propidium iodide-double staining based flow cytometry (reference value: 4.6%); assay type: functional
[12] = tested on: HCT-116; experiment: Induction of apoptosis in human HCT116 cells assessed as viable cells at 11.5 uM after 48 hrs by annexin V/propidium iodide-double staining based flow cytometry (reference value: 88.3%); assay type: functional; settings: HCT-116, 48 h, read-out: Activity
[13] = tested on: HCT-116; experiment: Induction of apoptosis in human HCT116 cells assessed as necrotic cells at 11.5 uM after 48 hrs by annexin V/propidium iodide-double staining based flow cytometry (reference value: […]); assay type: functional
[14] = tested on: A2780; experiment: Growth inhibition human A2780 cells after 72 hrs by MTS assay; assay type: functional, cell-based; settings: A2780, 72 h
[15] = tested on: HCT-116; experiment: Growth inhibition human HCT116 cells after 72 hrs by MTS assay; assay type: functional, cell-based; settings: HCT-116, 72 h
[16] = Ratio of IC50 for human A2780/TAX cells to IC50 for human A2780 cells after 72 hrs by MTS assay; assay type: functional
[17] = Ratio of IC50 for human A2780DDP cells to IC50 for human A2780 cells after 72 hrs by MTS assay; assay type: functional
[18] = Ratio of IC50 for human HCT116/VM46 cells to IC50 for human HCT116 cells after 72 hrs by MTS assay; assay type: functional
[19] = Ratio of IC50 for human HCT116/VP35 cells to IC50 for human HCT116 cells after 72 hrs by MTS assay; assay type: functional
[20] = tested on: Panel NCI-60 (60 carcinoma cell lines); experiment: Growth inhibition human NCI60 cells after 48 hrs by sulforhodamine B assay; assay type: functional
[21] = tested on: HCT-116; experiment: Induction of cellular senescence in human HCT116 cells assessed as up-regulation of p21 protein expression at 0.1 to 0.4 ug/ml after 48 hrs by Western blot analysis; assay type: functional, cell-based
[22] = tested on: HCT-116; experiment: Antiproliferative activity against human HCT116 cells assessed as inhibition of colony formation at 0.58 to 2.31 uM after 14 days by crystal violet-staining based assay; assay type: functional, cell-based
[23] = tested on: Mus musculus; experiment: Induction of cellular senescence in BALB/c mouse xenografted with human HCT116 cells assessed as up-regulation of p21 protein expression at 20 mg/kg, administered every other day for 3 weeks by immunohistochemical analysis; assay type: functional, organism-based
[24] = tested on: HCT-116; experiment: Antiproliferative activity against human HCT116 cells assessed as inhibition of colony formation at 0.91 to 3.64 uM after 14 days by crystal violet-staining based assay; assay type: functional, cell-based
[25] = tested on: HT-29; experiment: Growth inhibition human HT-29 cells after 72 hrs by MTS assay; assay type: functional, cell-based
[26] = tested on: Mus musculus; experiment: Effect on p27 protein expression in BALB/c mouse xenografted with human HCT116 cells at 20 mg/kg, administered every other day for 3 weeks by immunohistochemical analysis; assay type: functional, organism-based
[27] = tested on: Mus musculus; experiment: Induction of cellular senescence in BALB/c mouse xenografted with human HCT116 cells assessed as up-regulation of p16 protein expression at 20 mg/kg, administered every other day for 3 weeks by immunohistochemical analysis; assay type: functional, organism-based
[28] = tested on: HCT-116; experiment: Antiproliferative activity against human HCT116 cells xenografted in BALB/c mouse at 20 mg/kg, administered every other day for 3 weeks by Ki67-staining based assay; assay type: functional, organism-based
[29] = tested on: HCT-116; experiment: Induction of cellular senescence in human HCT116 cells assessed as up-regulation of p21 protein expression at 0.2 to 0.8 ug/ml after 48 hrs by Western blot analysis; assay type: functional, cell-based

Compound | IC50 [1] [µM] | IC50 [2] [µM] | IC50 [3] [µM] | IC50 [4] [µM] | other results
CC(=O)O[C@@H]1C=C[C@@H](O)[C@@]2(CC(=O)O[C@@H]2/C=C(\C)CCC=C(C)C)C1 | 13.3 | 7.24 | 18.3 |  | 
COC(=O)[C@H](O)[C@@]1(C/C=C(\C)CCC=C(C)C)C[C@H](OC(C)=O)C=CC1=O | 4.1 | 3.6 | 7.15 |  | 
COC(=O)C[C@@]1(C/C=C(\C)CCC=C(C)C)C[C@H](OC(C)=O)C=C[C@H]1O | 18.3 | 11.6 | 18 |  | 
CC(=O)O[C@@H]1CC[C@@H](OC(C)=O)[C@@]2(CC(=O)O[C@@H]2/C=C(\C)CCC=C(C)C)C1 | > 30 |  |  | > 30 | 
CC(=O)O[C@@H]1C=CC(=O)[C@@]2(CC(=O)O[C@@H]2/C=C(\C)CCC=C(CO)CO)C1 | 13.7 |  |  | 12.9 | 
CC(=O)O[C@H]1C[C@]2(CC(=O)O[C@@H]2/C=C(\C)CCC=C(C)C)C(=O)C[C@@H]1Nc1ccccc1 | 2.63 |  |  | 3.43 | Activity [5]: Non-Toxic; inhibition in vivo at 20 mg/kg [6]: 31.1%; inhibition in vivo at 40 mg/kg [7]: -8.6%
CC(=O)O[C@@H]1CCC(=O)[C@@]2(CC(=O)O[C@@H]2/C=C(\C)CCC=C(C)C)C1 | > 30 |  |  | > 30 | 
CC(=O)O[C@H]1C[C@]2(CC(=O)O[C@@H]2/C=C(\C)CCC=C(C)C)C(OC(=O)c2ccccc2)=C[C@H]1N(C(=O)c1ccccc1)c1ccccc1 | > 30 |  |  | > 30 | 
CC(=O)O[C@@H]1C=CC(=O)[C@@]2(CC(=O)O[C@@H]2/C=C(\C)CCCC(C)C=O)C1 (some centres undefined) | 5.49 |  |  | 7.18 | 
CC(=O)O[C@@H]1C=CC(=O)[C@@]2(CC(=O)O[C@@H]2CC(C)CCCC(C)C)C1 (some centres undefined) | 1.95 |  |  | 1.95 | 
CC(=O)O[C@@H]1CC[C@@H](O)[C@@]2(CC(=O)O[C@@H]2/C=C(\C)CCC=C(C)C)C1 | > 30 |  |  | > 30 | 
O=c1[nH]cc(F)c(=O)[nH]1 [FLUOROURACIL] |  |  |  |  | Activity [8]: Active; inhibition in vivo at 25 mg/kg [9]: 32.5%; Activity [10]: 4.7%; Activity [11]: 12.6%; viability at 11.5 µM [12]: 78.3%; Activity [13]: 4.4%
COc1cc([C@@H]2c3cc4c(cc3[C@@H](O[C@@H]3O[C@@H]5CO[C@@H](C)O[C@H]5[C@H](O)[C@H]3O)[C@H]3COC(=O)[C@H]23)OCO4)cc(OC)c1O [ETOPOSIDE] |  |  |  |  | IC50 [14]: 0.07 µM; IC50 [15]: 0.41 µM; Ratio IC50 [16]: 1.7; Ratio IC50 [17]: 2.5; Ratio IC50 [18]: 13.5; Ratio IC50 [19]: 7.4
CC(=O)O[C@@H]1C=CC(=O)[C@@]2(CC(=O)O[C@@H]2/C=C(\C)CC/C=C(\C)CO)C1 | 5.85 |  |  | 6.97 | 
CC(C)=CCC/C(C)=C/[C@H]1OC(=O)C[C@]12C[C@H](O)C=C[C@H]2O | > 65 | > 65 | > 65 |  | 
CO[C@@H]1CC(=O)[C@@]2(CC(=O)O[C@@H]2/C=C(\C)CCC=C(C)C)C[C@@H]1O | 3.5 | 3.7 | 4.36 |  | GI50 [20]: 0.03 to 4.79 µM
CC(=O)O[C@@H]1C=CC(=O)[C@@](C/C=C(\C)CCC=C(C)C)(CC(=O)O)C1 | > 57.5 | > 57.5 | > 57.5 |  | 
CC(=O)O[C@@H]1CCC(=O)[C@@]2(CC(=O)O[C@@H]2CC(C)CCCC(C)C)C1 (some centres undefined) | > 30 |  |  | > 30 | 
CC(=O)O[C@H]1C[C@]2(CC(=O)O[C@@H]2/C=C(\C)CCC=C(C)C)C(=O)C[C@H]1N(C(=O)c1ccccc1)c1ccccc1 | 10.4 |  |  | 14 | 
CC(=O)O[C@@H]1C=CC(=O)[C@@]2(CC(=O)O[C@@H]2/C=C(\C)C/C=C/C(C)(C)O)C1 | 4.2 | 4.25 | 20.8 |  | 
CC(=O)O[C@@H]1C=CC(=O)[C@@]2(CC(=O)O[C@@H]2/C=C(\C)CCC=C(C)C)C1 | 1.97 to 2.7 | 1.67 | 6.97 | 3.94 | Activity [21]: Active; GI50 [20]: 0.03 to 4.79 µM; Activity [22]: Active
CC(=O)O[C@H]1C[C@]2(CC(=O)O[C@@H]2/C=C(\C)CCC=C(C)C)C(=O)C[C@H]1Nc1ccccc1 | 2.5 |  |  | 2.93 | Activity [23]: Active; Activity [24]: Active; Activity [5]: Non-Toxic; growth inhibition (GI) [25]: Active; inhibition in vivo at 20 mg/kg [6]: 36.4%; Activity [26]: inactive; Activity [27]: Active; Activity [28]: Active; inhibition in vivo at 40 mg/kg [7]: 36.4%; Activity [29]: Active
COC(=O)C[C@@]1(C/C=C(\C)CCC=C(C)C)C[C@H](OC(C)=O)C=CC1=O | 13 | 10.4 | 24.5 |  | 
CO[C@H]1CC(=O)[C@@]2(CC(=O)O[C@@H]2/C=C(\C)CCC=C(C)C)C[C@@H]1O | 17.2 | 9.86 | 18.4 |  | 
